Experimental data taken from paper PMC9128629, “Identification and Characterization of Bifunctional Drimenol Synthases of Marine Bacterial Origin” (ACS Chemical Biology, 2022).

How the values were obtained:
Assay type in all cases: biochemical
[1] = target: T1, AsDMS (Aquimarina spongiae drimenol synthase) (Aquimarina spongiae, UniProt A0A1M6CXF0); assay: GC-MS detection of drimenol; conditions: 50 mM Tris-HCl pH 8.0, 2 mM MgCl2, 1 mM DTT, 100 μM FPP, 200 nM enzyme, 30 °C, 1 h, with or without alkaline phosphatase
T1 construct: gene SAMN04488508_102320

[2] = target: T2, AsDMS (Aquimarina spongiae drimenol synthase) (Aquimarina spongiae, UniProt A0A1M6CXF0, D182N/K183D, form not given); assay: GC-MS detection of drimenol; conditions: 50 mM Tris-HCl pH 8.0, 2 mM MgCl2, 1 mM DTT, 100 μM FPP, 200 nM enzyme, 30 °C, 1 h, with or without alkaline phosphatase
T2 construct: gene SAMN04488508_102320

[3] = target: T1, AsDMS (Aquimarina spongiae drimenol synthase); assay: GC-MS detection of drimenol; conditions: 50 mM Tris-HCl pH 8.0, 2 mM MgCl2, 1 mM DTT, 100 μM FPP, 200 nM enzyme, 30 °C, 1 h, with or without alkaline phosphatase; remark: listed apart in the source
[4] = target: T1, AsDMS (Aquimarina spongiae drimenol synthase); assay: GC-MS quantification of drimenol, Michaelis-Menten fit; conditions: 50 mM Tris-HCl pH 8.0, 2 mM MgCl2, 1 mM DTT, 0-120 μM FPP, 200 nM enzyme, 30 °C
[5] = target: T3, FeDMS (Flavivirga eckloniae, UniProt A0A2K9PVZ9); assay: GC-MS detection of drimenol; conditions: 50 mM Tris-HCl pH 8.0, 2 mM MgCl2, 1 mM DTT, 100 μM FPP, 500 nM enzyme, 30 °C, 1 h, with or without alkaline phosphatase
T3 construct: gene C1H87_21965
T3 sequence (A0A2K9PVZ9 entry or part of it): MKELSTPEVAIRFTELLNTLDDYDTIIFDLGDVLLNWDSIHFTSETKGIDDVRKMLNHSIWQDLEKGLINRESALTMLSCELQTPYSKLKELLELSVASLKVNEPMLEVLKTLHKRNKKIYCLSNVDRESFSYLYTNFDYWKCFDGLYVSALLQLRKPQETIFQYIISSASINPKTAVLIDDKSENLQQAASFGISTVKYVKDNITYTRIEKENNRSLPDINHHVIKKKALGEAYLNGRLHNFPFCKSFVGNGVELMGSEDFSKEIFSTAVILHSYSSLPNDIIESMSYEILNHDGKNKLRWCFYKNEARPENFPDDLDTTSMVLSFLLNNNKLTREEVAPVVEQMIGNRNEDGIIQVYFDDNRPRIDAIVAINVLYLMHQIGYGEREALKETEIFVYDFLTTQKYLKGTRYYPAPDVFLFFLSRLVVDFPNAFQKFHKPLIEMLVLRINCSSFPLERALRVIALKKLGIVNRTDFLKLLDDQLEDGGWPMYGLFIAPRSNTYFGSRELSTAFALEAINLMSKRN

T1 sequence (A0A1M6CXF0 entry or part of it): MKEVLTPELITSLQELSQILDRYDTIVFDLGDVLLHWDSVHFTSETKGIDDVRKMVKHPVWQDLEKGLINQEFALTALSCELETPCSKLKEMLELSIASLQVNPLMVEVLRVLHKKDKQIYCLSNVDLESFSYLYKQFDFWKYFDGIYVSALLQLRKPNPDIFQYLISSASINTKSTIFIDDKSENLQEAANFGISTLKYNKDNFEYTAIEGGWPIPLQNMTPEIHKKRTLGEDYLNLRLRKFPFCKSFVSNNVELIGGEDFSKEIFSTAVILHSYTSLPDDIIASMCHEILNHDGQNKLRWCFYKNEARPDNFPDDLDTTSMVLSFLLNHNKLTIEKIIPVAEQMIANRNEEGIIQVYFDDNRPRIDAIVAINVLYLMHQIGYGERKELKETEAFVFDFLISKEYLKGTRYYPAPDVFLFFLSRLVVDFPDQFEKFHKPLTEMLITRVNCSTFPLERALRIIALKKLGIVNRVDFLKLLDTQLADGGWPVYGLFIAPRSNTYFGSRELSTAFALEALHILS
T2 sequence (A0A1M6CXF0 entry or part of it D182N/K183D, form open): as the sequence (A0A1M6CXF0 entry or part of it) above, with D182N, K183D counted along it

GC-MS detection of drimenol [2]: a double mutant D196N/K197D
Km [4]: 9.59 ± 2.15 µM
Structure (SMILES): CC(C)=CCC/C(C)=C/CC/C(C)=C/CO[P@@](=O)(O)OP(=O)(O)O [FPP]
GC-MS detection of drimenol [1]: exhibited almost equipotent activity to that of the WT
GC-MS detection of drimenol [3]: The D196N mutant displayed a significant decrease in activity
GC-MS detection of drimenol [5]: five proteins (AsDMS, A474DMS, A119DMS, FeDMS, and RbDMS) with FPP yielded a single compound
